According to the supplement of paper PMC10307832:

Columns and labels:
Test in all cases: relative viability (nuclei count vs DMSO), 5 days (fraction); higher = more cells survive
Midostaurin = compound: CO[C@@H]1[C@H](N(C)C(=O)c2ccccc2)C[C@H]2O[C@]1(C)n1c3ccccc3c3c4c(c5c6ccccc6n2c5c31)C(=O)NC4 [Midostaurin]
Summary of the method: (§1)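 Lung cancer cell lines received five library-drug doses (not always all listed) spaced by √10, pinned on vehicle-anchored 1536-well plates after an overnight stay at 37 °C. Five days later, with no medium change, nuclei were Hoechst-stained, imaged at 4× and counted with MetaXpress. Viability is treated-well nuclei relative to vehicle-well nuclei, as a median across plates. Passing plates had control CV below 25% and at least one doubling.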

[1] = compound: COc1cc(-c2nn([C@H]3CC[C@H](N4CCN(C(C)=O)CC4)CC3)c3ncnc(N)c23)ccc1NC(=O)c1cc2ccccc2n1C
Summary of the method: as §1

Midostaurin + Luminespib = compound: CO[C@@H]1[C@H](N(C)C(=O)c2ccccc2)C[C@H]2O[C@]1(C)n1c3ccccc3c3c4c(c5c6ccccc6n2c5c31)C(=O)NC4 [Midostaurin] + CCNC(=O)c1noc(-c2cc(C(C)C)c(O)cc2O)c1-c1ccc(CN2CCOCC2)cc1 [Luminespib] (partner 0.01 µM)
Summary of the method: (§2)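 Lung cancer cell lines were pin-tool dosed in 1536-well plates on the day after seeding, with either a lone drug or a fixed anchor-drug dose plus five library-drug doses (not always all listed) in √10 steps. Nuclei were counted on 4× images after 5 days. Relative viability is the ratio of treated-well to vehicle-well nuclei counts, with each value a median of duplicate plates.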

Midostaurin + Foretinib = compound: CO[C@@H]1[C@H](N(C)C(=O)c2ccccc2)C[C@H]2O[C@]1(C)n1c3ccccc3c3c4c(c5c6ccccc6n2c5c31)C(=O)NC4 [Midostaurin] + COc1cc2c(Oc3ccc(NC(=O)C4(C(=O)Nc5ccc(F)cc5)CC4)cc3F)ccnc2cc1OCCCN1CCOCC1 [Foretinib] (partner 0.25 µM)
Summary of the method: as §2

Midostaurin + OSI-027 = compound: CO[C@@H]1[C@H](N(C)C(=O)c2ccccc2)C[C@H]2O[C@]1(C)n1c3ccccc3c3c4c(c5c6ccccc6n2c5c31)C(=O)NC4 [Midostaurin] + COc1cccc2cc(-c3nc([C@H]4CC[C@H](C(=O)O)CC4)n4ncnc(N)c34)[nH]c12 [OSI-027] (partner 0.5 µM)
Summary of the method: as §2

Midostaurin + Tozasertib = compound: CO[C@@H]1[C@H](N(C)C(=O)c2ccccc2)C[C@H]2O[C@]1(C)n1c3ccccc3c3c4c(c5c6ccccc6n2c5c31)C(=O)NC4 [Midostaurin] + Cc1cc(Nc2cc(N3CCN(C)CC3)nc(Sc3ccc(NC(=O)C4CC4)cc3)n2)n[nH]1 [Tozasertib] (partner 0.1 µM)
Summary of the method: as §2

Midostaurin + Dasatinib = compound: CO[C@@H]1[C@H](N(C)C(=O)c2ccccc2)C[C@H]2O[C@]1(C)n1c3ccccc3c3c4c(c5c6ccccc6n2c5c31)C(=O)NC4 [Midostaurin] + Cc1nc(Nc2ncc(C(=O)Nc3c(C)cccc3Cl)s2)cc(N2CCN(CCO)CC2)n1 [Dasatinib] (partner 0.075 µM)
Summary of the method: as §2

Midostaurin + Phenformin = compound: CO[C@@H]1[C@H](N(C)C(=O)c2ccccc2)C[C@H]2O[C@]1(C)n1c3ccccc3c3c4c(c5c6ccccc6n2c5c31)C(=O)NC4 [Midostaurin] + N=C(N)NC(=N)NCCc1ccccc1 [Phenformin] (partner 250 µM)
Summary of the method: as §2

[2] = compound: COc1cc(-c2nn([C@H]3CC[C@H](N4CCN(C(C)=O)CC4)CC3)c3ncnc(N)c23)ccc1NC(=O)c1cc2ccccc2n1C + CCNC(=O)c1noc(-c2cc(C(C)C)c(O)cc2O)c1-c1ccc(CN2CCOCC2)cc1 [Luminespib] (partner 0.01 µM)
Summary of the method: as §2

[3] = compound: COc1cc(-c2nn([C@H]3CC[C@H](N4CCN(C(C)=O)CC4)CC3)c3ncnc(N)c23)ccc1NC(=O)c1cc2ccccc2n1C + COc1cc2c(Oc3ccc(NC(=O)C4(C(=O)Nc5ccc(F)cc5)CC4)cc3F)ccnc2cc1OCCCN1CCOCC1 [Foretinib] (partner 0.25 µM)
Summary of the method: as §2

[4] = compound: COc1cc(-c2nn([C@H]3CC[C@H](N4CCN(C(C)=O)CC4)CC3)c3ncnc(N)c23)ccc1NC(=O)c1cc2ccccc2n1C + COc1cccc2cc(-c3nc([C@H]4CC[C@H](C(=O)O)CC4)n4ncnc(N)c34)[nH]c12 [OSI-027] (partner 0.5 µM)
Summary of the method: as §2

[5] = compound: COc1cc(-c2nn([C@H]3CC[C@H](N4CCN(C(C)=O)CC4)CC3)c3ncnc(N)c23)ccc1NC(=O)c1cc2ccccc2n1C + Cc1cc(Nc2cc(N3CCN(C)CC3)nc(Sc3ccc(NC(=O)C4CC4)cc3)n2)n[nH]1 [Tozasertib] (partner 0.1 µM)
Summary of the method: as §2

[6] = compound: COc1cc(-c2nn([C@H]3CC[C@H](N4CCN(C(C)=O)CC4)CC3)c3ncnc(N)c23)ccc1NC(=O)c1cc2ccccc2n1C + Cc1nc(Nc2ncc(C(=O)Nc3c(C)cccc3Cl)s2)cc(N2CCN(CCO)CC2)n1 [Dasatinib] (partner 0.075 µM)
Summary of the method: as §2

[7] = compound: COc1cc(-c2nn([C@H]3CC[C@H](N4CCN(C(C)=O)CC4)CC3)c3ncnc(N)c23)ccc1NC(=O)c1cc2ccccc2n1C + N=C(N)NC(=N)NCCc1ccccc1 [Phenformin] (partner 250 µM)
Summary of the method: as §2

NCI-H1623
relative viability (Midostaurin; 0.01 µM): 0.982 | relative viability (Midostaurin; 0.03162 µM): 0.956 | relative viability (Midostaurin; 0.1 µM): 1.05 | relative viability (Midostaurin; 0.3162 µM): 1.23 | relative viability ([1]; 0.0128 µM): 1.01 | relative viability ([1]; 0.04048 µM): 1.05 | relative viability ([1]; 0.128 µM): 0.946 | relative viability ([1]; 1.28 µM): 0.739 | relative viability (Midostaurin + Luminespib; first compound 0.01 µM): 0.526 | relative viability (Midostaurin + Luminespib; first compound 0.03162 µM): 0.647 | relative viability (Midostaurin + Luminespib; first compound 0.1 µM): 0.513 | relative viability (Midostaurin + Luminespib; first compound 0.3162 µM): 0.632 | relative viability (Midostaurin + Foretinib; first compound 0.01 µM): 0.995 | relative viability (Midostaurin + Foretinib; first compound 0.03162 µM): 0.876 | relative viability (Midostaurin + Foretinib; first compound 0.1 µM): 0.949 | relative viability (Midostaurin + Foretinib; first compound 0.3162 µM): 0.941 | relative viability (Midostaurin + OSI-027; first compound 0.01 µM): 0.455 | relative viability (Midostaurin + OSI-027; first compound 0.03162 µM): 0.471 | relative viability (Midostaurin + OSI-027; first compound 0.1 µM): 0.465 | relative viability (Midostaurin + OSI-027; first compound 0.3162 µM): 0.561 | relative viability (Midostaurin + Tozasertib; first compound 0.01 µM): 0.445 | relative viability (Midostaurin + Tozasertib; first compound 0.03162 µM): 0.481 | relative viability (Midostaurin + Tozasertib; first compound 0.1 µM): 0.433 | relative viability (Midostaurin + Tozasertib; first compound 0.3162 µM): 0.446 | relative viability (Midostaurin + Dasatinib; first compound 0.01 µM): 0.53 | relative viability (Midostaurin + Dasatinib; first compound 0.03162 µM): 0.594 | relative viability (Midostaurin + Dasatinib; first compound 0.1 µM): 0.507 | relative viability (Midostaurin + Dasatinib; first compound 0.3162 µM): 0.652 | relative viability (Midostaurin + Phenformin; first compound 0.01 µM): 0.588 | relative viability (Midostaurin + Phenformin; first compound 0.03162 µM): 0.626 | relative viability (Midostaurin + Phenformin; first compound 0.1 µM): 0.56 | relative viability (Midostaurin + Phenformin; first compound 0.3162 µM): 0.634 | relative viability ([2]; first compound 0.0128 µM): 0.473 | relative viability ([2]; first compound 0.04048 µM): 0.514 | relative viability ([2]; first compound 0.128 µM): 0.451 | relative viability ([2]; first compound 1.28 µM): 0.433 | relative viability ([3]; first compound 0.0128 µM): 0.855 | relative viability ([3]; first compound 0.04048 µM): 0.696 | relative viability ([3]; first compound 0.128 µM): 0.763 | relative viability ([3]; first compound 1.28 µM): 0.595 | relative viability ([4]; first compound 0.0128 µM): 0.422 | relative viability ([4]; first compound 0.04048 µM): 0.342 | relative viability ([4]; first compound 0.128 µM): 0.399 | relative viability ([4]; first compound 1.28 µM): 0.37 | relative viability ([5]; first compound 0.0128 µM): 0.449 | relative viability ([5]; first compound 0.04048 µM): 0.419 | relative viability ([5]; first compound 0.128 µM): 0.424 | relative viability ([5]; first compound 1.28 µM): 0.41 | relative viability ([6]; first compound 0.0128 µM): 0.526 | relative viability ([6]; first compound 0.04048 µM): 0.497 | relative viability ([6]; first compound 0.128 µM): 0.557 | relative viability ([6]; first compound 1.28 µM): 0.572 | relative viability ([7]; first compound 0.0128 µM): 0.622 | relative viability ([7]; first compound 0.04048 µM): 0.508 | relative viability ([7]; first compound 0.128 µM): 0.603 | relative viability ([7]; first compound 1.28 µM): 0.53
